Each structure is given as a SMILES string. Where a name gives a salt, the structure may show the parent alone. A value given as a limit tells only on which side of the number the result lay.

The first test deals with human primary T-cells, IL-2 stimulated proliferation (JAK-1 and JAK-3 dependent; reported as JAK3 activity). As to the kind of experiment: Human primary T-cell proliferation stimulated by IL-2 (Example 3). Type of test: cell-based. The note with it: Homo sapiens, T-cell, tested under conditions described in Example 3 (IL-2 stimulated human primary T-cell proliferation); read-out: ability to inhibit JAK3 activity, IC50 range (Table V). Summed up:
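Peripheral-blood human T-cells pre-activated via TCR/CD28, IL-2-starved overnight, then cultured 72 h at 37 °C with compound in Yssel's medium containing IL-2 (80 U/mL in cell suspension). Proliferation read as viable-cell ATP by CellTiter-Glo luminescence; reduction versus control taken as JAK pathway inhibition.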
For the molecule `COc1cc(Nc2ncc(C)c(Nc3ccc4oc(=O)[nH]c4c3)n2)cc(C(C)N2CCCC2)c1` (stereo not shown) [Compound I-234, 5-(2-(3-methoxy-5-(1-(pyrrolidin-1-yl)ethyl)phenylamino)-5-methylpyrimidin-4-ylamino)benzo[d]oxazol-2(3H)-one], the half-inhibitory concentration (IC50) (commonly the concentration needed to halve the response being measured) is under 500 nM.

`Cc1ccc(Nc2ncc(C)c(Nc3ccc4oc(=O)[nH]c4c3)n2)cc1CF` [Compound I-439, 5-(2-(3-(fluoromethyl)-4-methylphenylamino)-5-methylpyrimidin-4-ylamino)benzo[d]oxazol-2(3H)-one]: the IC50 is under 500 nM. Still for that read-out and setting: in the case of `Cc1cc(Nc2ncc(C)c(Nc3ccc4oc(=O)[nH]c4c3)n2)ccc1C(=O)NC1CCC1` [Compound I-190, N-Cyclobutyl-2-methyl-4-[5-methyl-4-(2-oxo-2,3-dihydro-benzooxazol-5-ylamino)-pyrimidin-2-ylamino]-benzamide] it was under 500 nM; in that of `Cc1cnc(Nc2cccc(C(F)(F)F)c2)nc1Nc1ccc2oc(=O)[nH]c2c1` [Compound I-158, 5-[5-Methyl-2-(3-trifluoromethyl-phenylamino)-pyrimidin-4-ylamino]-3H-benzooxazol-2-one], under 500 nM; in that of `O=c1[nH]c2cc(Nc3nc(Nc4cccc(OC(F)(F)F)c4)ncc3F)ccc2o1` [Compound I-107, N4-(benzoxazolin-2-on-5-yl)-N2-(3-trifluoromethoxyphenyl)-5-fluoropyrimidine-2,4-diamine trifluoroacetate salt], 500 to 5000 nM. On the same count and under the same terms, in the case of `CCCNC(C)c1cccc(Nc2ncc(C)c(Nc3ccc4oc(=O)[nH]c4c3)n2)c1` (stereo not shown) [Compound I-208, 5-(5-methyl-2-(3-(1-(propylamino)ethyl)phenylamino)pyrimidin-4-ylamino)benzo[d]oxazol-2(3H)-one] it was under 500 nM. Still for that read-out and setting: the result for `Cc1cnc(Nc2ccc(N3C[C@@H]4C[C@H]3CO4)nc2)nc1Nc1ccc2oc(=O)[nH]c2c1` [II-32, N4-(benzoxazolin-2-on-5-yl)-N2-[2-((1S,4S)-2-oxa-5-azabicyclo[2.2.1]heptan-5-yl)pyridin-5-yl]-5-methylpyrimidine-2,4-diamine] reads under 500 nM; that for `Cc1cnc(Nc2ccc(N3CCN[C@@H](C)C3)nc2)nc1Nc1ccc2oc(=O)[nH]c2c1` [II-44, 5-{5-Methyl-2-[6-((S)-3-methyl-piperazin-1-yl)-pyridin-3-ylamino]-pyrimidin-4-ylamino}-3H-benzooxazol-2-one], under 500 nM; that for `Cc1cnc(Nc2ccc(OC(F)F)c(CF)c2)nc1Nc1ccc2oc(=O)[nH]c2c1` [Compound I-433, 5-(2-(4-(difluoromethoxy)-3-(fluoromethyl)phenylamino)-5-methylpyrimidin-4-ylamino)benzo[d]oxazol-2(3H)-one formate salt], under 500 nM.

For the molecule `Cc1cnc(Nc2ccc(C(=O)NC3CCC3)nc2)nc1Nc1ccc2oc(=O)[nH]c2c1` [II-151, 5-[5-Methyl-4-(2-oxo-2,3-dihydro-benzooxazol-5-ylamino)-pyrimidin-2-ylamino]-pyridine-2-carboxylic acid cyclobutylamide], the IC50 was under 500 nM. Turning to `Cc1cnc(Nc2ccc(C(C)NC(C)C)cc2)nc1Nc1ccc2oc(=O)[nH]c2c1` (stereo not shown) [Compound I-207, 5-(2-(4-(1-(isopropylamino)ethyl)phenylamino)-5-methylpyrimidin-4-ylamino)benzo[d]oxazol-2(3H)-one], the IC50 was under 500 nM. On the same count and under the same terms, in the case of `COC(=O)N1CCN(c2ccc(Nc3ncc(C)c(Nc4ccc5oc(=O)[nH]c5c4)n3)cn2)CC1` [II-9, N4-(benzo[d]oxazol-2(3H)-on-5-yl)-N2-(6-(4-methoxycarbonylpiperazin-1-yl)pyridin-3-yl)-5-methylpyrimidine-2,4-diamine] it was under 500 nM; in that of `COc1ccc(Nc2ncc(C)c(Nc3ccc4oc(=O)[nH]c4c3)n2)cc1C(=O)N1CCN(C)CC1` [Compound I-263, 5-(2-(4-methoxy-3-(4-methylpiperazine-1-carbonyl)phenylamino)-5-methylpyrimidin-4-ylamino)benzo[d]oxazol-2(3H)-one], under 500 nM. Still for that read-out and setting: in the case of `CCN1CCN(c2ncc(Nc3ncc(C)c(Nc4ccc5oc(=O)[nH]c5c4)n3)cc2C(F)(F)F)CC1` [II-110, N4-(benzo[d]oxazolin-2(3H)-one-5-yl)-N2-[2-(4-ethylpiperazin-1-yl)-3-trifluoromethylpyridine-5-yl]-5-methyl-2,4-pyrimidinediamine] it was under 500 nM; in that of `Cc1cnc(Nc2ccc3c(c2)NC(=O)C3(C)C)nc1Nc1ccc2oc(=O)[nH]c2c1` [IV-26, 5-(2-(3,3-dimethyl-2-oxoindolin-6-ylamino)-5-methylpyrimidin-4-ylamino)benzo[d]oxazol-2(3H)-one], under 500 nM; in that of `Cc1cnc(Nc2ccc(N3C[C@@H]4C[C@H]3CN4C)nc2)nc1Nc1ccc2oc(=O)[nH]c2c1` [II-31, N4-(benzoxazolin-2-on-5-yl)-N2-[2-((1S,4S)-5-methyl-2,5-diazabicyclo[2.2.1]heptan-2-yl)pyridin-5-yl]-5-methylpyrimidine-2,4-diamine], under 500 nM. Take `Cc1cnc(Nc2c(C)cccc2C)nc1Nc1ccc2oc(=O)[nH]c2c1` [IV-60, 5-(2-(2,6-dimethylphenylamino)-5-methylpyrimidin-4-ylamino)benzo[d]oxazol-2(3H)-one]: the IC50 fell in the range of 5000 to 10000 nM. Turning to `CCc1cccc(Nc2ncc(C)c(Nc3ccc4oc(=O)[nH]c4c3)n2)c1` [Compound I-503, 5-(2-(3-ethylphenylamino)-5-methylpyrimidin-4-ylamino)benzo[d]oxazol-2(3H)-one], the half-maximal inhibitory concentration (IC50) is under 500 nM.

Staying with this test, now noted: tested under conditions described in Example 3 (IL-2 stimulated human primary T-cell proliferation); read-out: ability to inhibit JAK3 activity, IC50 range (Table V).
`O=c1[nH]c2cc(Nc3nc(Nc4cccc(N5CCOCC5)c4)ncc3F)ccc2o1` [Compound I-47, N4-(benzo[d]oxazol-2(3H)-on-5-yl)-N2-((3-morpholinyl)phenyl)-5-fluoropyrimidine-2,4-diamine]: the half-maximal inhibitory concentration (IC50) was under 500 nM.

As to `Cc1cnc(Nc2cccc(NS(C)(=O)=O)c2)nc1Nc1ccc2oc(=O)n(C)c2c1` [Compound I-71, N2-((3-methylsulfonylamino)phenyl)-N4-(3-methyl-2-oxo-2,3-dihydrobenzo[d]oxazol-5-yl)-5-methylpyrimidine-2,4-diamine], the IC50 was under 500 nM. On the same count and under the same terms, the result for `Cc1ccc(Nc2ncc(F)c(Nc3ccc4oc(=O)[nH]c4c3)n2)cc1NS(C)(=O)=O` [Compound I-84, N2-((3-methylsulfonylamino-4-methyl)phenyl)-N4-(2-oxo-2,3-dihydrobenzo[d]oxazol-5-yl)-5-fluoropyrimidine-2,4-diamine] reads under 500 nM.

On to `CCNC(=O)N1CCN(c2ccc(Nc3ncc(C)c(Nc4ccc5oc(=O)[nH]c5c4)n3)cc2)CC1` [Compound I-333, N2-[4-(4-ethylaminocarbonyl)piperazino]phenyl-5-methyl-N4-(2-oxo-2,3-dihydro-1,3-benzoxazol-5-yl)-2,4-pyrimidinediamine], for which the half-inhibitory concentration (IC50) was under 500 nM. Still for that read-out and setting: the result for `Cc1cnc(Nc2cccc(S(N)(=O)=O)c2)nc1Nc1ccc2[nH]c(=O)[nH]c2c1` [Compound I-11, N4-(benzimidazolin-2-on-5-yl)-N2-((3-aminosulfonyl)phenyl)-5-methylpyrimidine-2,4-diamine] reads under 500 nM; that for `COc1cc(Nc2ncc(C)c(Nc3ccc4oc(=O)n(COP(=O)(O)O)c4c3)n2)cc(C(F)(F)F)c1` [Compound I-357, N2-(3-methoxy-5-trifluoromethyl)phenyl-5-methyl-N4-[3-(phosphonooxy)methyl-2-oxo-2,3-dihydro-1,3-benzoxazol-5-yl]-2,4-pyrimidinediamine], 500 to 5000 nM; that for `CCOC(=O)N1CCN(c2ccc(Nc3ncc(C)c(Nc4ccc5oc(=O)[nH]c5c4)n3)cc2)CC1` [Compound I-344, N2-[4-(4-ethoxycarbonyl)piperazino]phenyl-5-methyl-N4-(2-oxo-2,3-dihydro-1,3-benzoxazol-5-yl)-2,4-pyrimidinediamine], under 500 nM.

On to `Cc1cnc(Nc2cc(C)c(F)c(C)c2)nc1Nc1ccc2oc(=O)[nH]c2c1` [Compound I-374, N2-(3,5-dimethyl-4-fluoro)phenyl-5-methyl-N4-(2-oxo-2,3-dihydro-1,3-benzoxazol-5-yl)-2,4-pyrimidinediamine], for which the half-maximal inhibitory concentration (IC50) is under 500 nM. Same read-out and setting: the result for `Cc1cnc(Nc2ccc(OCC(=O)OC(C)C)cc2)nc1Nc1ccc2oc(=O)[nH]c2c1` [Compound I-317, N2-[4-(isopropoxycarbonylmethoxy)]phenyl-5-methyl-N4-(2-oxo-2,3-dihydro-1,3-benzoxazol-5-yl)-2,4-pyrimidinediamine] reads under 500 nM; that for `Cc1cnc(Nc2ccc(S(N)(=O)=O)cc2)nc1Nc1ccc2c(c1)oc(=O)n2C` [Compound I-64, N2-((4-aminosulfonyl)phenyl)-N4-(3-methyl-2-oxo-2,3-dihydrobenzo[d]oxazol-6-yl)-5-methylpyrimidine-2,4-diamine], over 10000 nM. Still for that read-out and setting: in the case of `COc1cc(Nc2ncc(C)c(Nc3ccc4oc(=O)n(COP(=O)(O)O)c4c3)n2)cc(C)c1F` [Compound I-538, Sodium (5-(2-(4-fluoro-3-methoxy-5-methylphenylamino)-5-methylpyrimidin-4-ylamino)-2-oxobenzo[d]oxazol-3(2H)-yl)methyl phosphate] it was 500 to 5000 nM; in that of `CN1CCN(c2ccc(Nc3ncc(F)c(Nc4ccc5[nH]c(=O)[nH]c5c4)n3)cn2)CC1` [II-16, N4-(benzimidazolin-2-on-5-yl)-N2-[2-(4-methylpiperazin-1-yl)pyridin-5-yl]-5-fluoropyrimidine-2,4-diamine], under 500 nM; in that of `Cn1c(=O)n(C)c2cc(Nc3nc(Nc4cccc(NS(C)(=O)=O)c4)ncc3F)ccc21` [Compound I-42, N4-(1,3-dimethylbenzimidazolin-2-on-5-yl)-N2-((3-methylsulfonylamino)phenyl)-5-fluoropyrimidine-2,4-diamine], 500 to 5000 nM.
